Test results published in patent publication US20120034296A1 (priority 2009, published 2012).
Structures can show the parent of a compound that is named as a salt. Where two headings read alike, the source gives them in different places.

Columns and labels:
[1] = system: Gadd45a, ATF3, SmagP, Cacna2d1; conditions: rat, in vivo

CN(C)CCC=C1c2ccccc2CCc2ccccc21 [amitriptyline]
expression of Gadd45a, ATF3, SmagP, Cacna2d1 in dorsal root ganglia [1]: dramatically upregulated

CCCCN1CCCCC1C(=O)Nc1c(C)cccc1C (stereo not shown) [bupivacaine solution, bupivacaine hydrochloride]
neurotoxicity / cytotoxicity (PC12 cells): increased with concentration and duration of exposure | myotoxicity (C2C12 cells): increased with concentration and duration of exposure

C[C@@H]1C[C@H]2[C@@H]3CCC4=CC(=O)C=C[C@]4(C)[C@@]3(F)[C@@H](O)C[C@]2(C)[C@@]1(O)C(=O)CO [dexamethasone]
decrease in survival (PC12 cells; rat): 20% | myotoxicity (C2C12 cells; mouse): not myotoxic at up to 2 days | survival (C2C12 cells; mouse): 80±5% | viability (C2C12 cells; mouse): > 90%
